Measurements as given in patent publication US20220304978A1, “INHIBITING MESANGIAL CELL ACTIVATION” (Chinook Therapeutics, Inc., priority 2019, published 2022).

Tested on: kidney tissue of g-ddY mice
Assay: RNA-seq differential gene expression in kidney tissue of g-ddY mice
Type: in vivo, mouse
Conditions: 10 mg/kg/day vs control
Experimental: RNA isolation and sequencing libraries were generated using standard protocols. Sequencing was performed using an Illumina NextSeq500 using manufacturer's instructions with a read length of 75 bp and a read depth of 30 million. Raw data was assembled to FASTQ files. Following QC analysis, high quality sequencing reads (e.g., reads with a Phred quality score >36) were aligned to the mouse reference genome (GRCm38-mm10) using the default parameters of the align algorithm and transcript count tables of each library was generated using the default parameters of the featureCounts algorithm of the RSubread package (Liao Y, Smyth GK, Shi W, 2019). High quality sequencing reads mapped to 27,129 genes. Following additional QC of low count filtering (i.e. transcripts <10 counts across all samples), 16,207 genes were identified and used for further analysis. The remaining sequencing read counts of the included 16,207 genes were normalized to library size, log-transformed, and were quantified as counts per million (CPM). Select RNA-seq counts were validated using qPCR. Sequencing read counts (CPM) were used for identification of differential gene expression between specified populations using the quasi-likelihood methodology of the edgeR package. […] MA plots were generated using edgeR. Heatmaps and other plots were generated using the gplots and ggplot2 package.

[1] = inflammatory response signaling

SMILES: CCCCN(CCCC)C(=O)CN1C[C@H](c2ccc3c(c2)OCO3)[C@@H](C(=O)O)[C@@H]1c1ccc(OC)cc1 [atrasentan, (2R,3R,4S)-4-(1,3-benzodioxol-5-yl)-1-[2-(dibutylamino)-2-oxoethyl]-2-(4-methoxyphenyl)pyrrolidine-3-carboxylic acid]
- Cntfr logFC (IL6 signaling): −0.8669
- Csf1 logFC (IL6 signaling): −0.8332
- Il1b logFC (IL6 signaling): −1.684
- Il1r1 logFC (IL6 signaling): −0.2988
- Il2ra logFC (IL6 signaling): −0.8599
- Map3k8 logFC (IL6 signaling): −0.3558
- Ackr3 logFC (NF-kB signaling): 0.2851
- Atf3 logFC (NF-kB signaling): −1.514
- Btg1 logFC (NF-kB signaling): −0.3745
- Btg2 logFC (NF-kB signaling): −0.424
- Ccl20 logFC (NF-kB signaling): −1.273
- Ccnd1 logFC (NF-kB signaling): 0.453
- Cdkn1a logFC (NF-kB signaling): 0.5583
- Csf1 logFC (NF-kB signaling): −0.8332
- Cxcl2 logFC (NF-kB signaling): −1.19
- Dnajb4 logFC (NF-kB signaling): −0.3683
- Edn1 logFC (NF-kB signaling): −1.006
- Efna1 logFC (NF-kB signaling): 0.6938
- Ehd1 logFC (NF-kB signaling): 0.2563
- F3 logFC (NF-kB signaling): −0.4963
- Fosl2 logFC (NF-kB signaling): −0.8662
- Id2 logFC (NF-kB signaling): 0.1663
- Ifit2 logFC (NF-kB signaling): −0.471
- Il1b logFC (NF-kB signaling): −1.684
- Jag1 logFC (NF-kB signaling): −0.4199
- Klf2 logFC (NF-kB signaling): −0.4894
- Klf4 logFC (NF-kB signaling): −0.5493
- Map3k8 logFC (NF-kB signaling): −0.3558
- Nfat5 logFC (NF-kB signaling): −0.3118
- Nfkb1 logFC (NF-kB signaling): −0.3424
- Nfkbia logFC (NF-kB signaling): −0.5525
- Nr4a2 logFC (NF-kB signaling): −1.3802
- Nr4a3 logFC (NF-kB signaling): −1.143
- Per1 logFC (NF-kB signaling): −0.4162
- Pfkfb3 logFC (NF-kB signaling): −1.166
- Pnrcl logFC (NF-kB signaling): 0.2635
- Rel logFC (NF-kB signaling): −0.7218
- Rhob logFC (NF-kB signaling): −0.533
- Serpine1 logFC (NF-kB signaling): −0.7169
- Snn logFC (NF-kB signaling): 0.3517
- Spsb1 logFC (NF-kB signaling): −0.6157
- Tnfaip8 logFC (NF-kB signaling): 0.273
- Traf1 logFC (NF-kB signaling): −0.5182
- Trib1 logFC (NF-kB signaling): −0.6481
- Zbtb10 logFC (NF-kB signaling): −0.2335
- Hras logFC (PDGF signaling): 0.1887
- Map3k1 logFC (PDGF signaling): −0.3825
- Nfkb1 logFC (PDGF signaling): −0.3424
- Nfkbia logFC (PDGF signaling): −0.5525
- Pdgfb logFC (PDGF signaling): −0.3414
- Pdgfra logFC (PDGF signaling): −0.51
- Pik3cg logFC (PDGF signaling): −0.5882
- Pik3r1 logFC (PDGF signaling): −0.4253
- Pla2g4a logFC (PDGF signaling): −0.6999
- Tiam1 logFC (PDGF signaling): −0.7456
- Arid4a logFC (cell proliferation signaling): −0.2777
- Atrx logFC (cell proliferation signaling): −0.2463
- Bcar1 logFC (cell proliferation signaling): 0.3379
- Ccdc88a logFC (cell proliferation signaling): −0.5602
- Ccnd1 logFC (cell proliferation signaling): 0.453
- Cep192 logFC (cell proliferation signaling): −0.4211
- Cntrl logFC (cell proliferation signaling): −0.289
- Dmd logFC (cell proliferation signaling): −0.3335
- Epb41l2 logFC (cell proliferation signaling): −0.4376
- Fgd6 logFC (cell proliferation signaling): −0.2369
- Flna logFC (cell proliferation signaling): −0.4162
- Itsn1 logFC (cell proliferation signaling): −0.2276
- Kmt5a logFC (cell proliferation signaling): 0.2601
- Meis1 logFC (cell proliferation signaling): −0.2507
- Myh9 logFC (cell proliferation signaling): −0.2093
- Myh10 logFC (cell proliferation signaling): −0.3068
- Myo1e logFC (cell proliferation signaling): −0.2349
- Nin logFC (cell proliferation signaling): −0.3393
- Ophn1 logFC (cell proliferation signaling): −0.4999
- Rapgef5 logFC (cell proliferation signaling): −0.2732
- Rhot2 logFC (cell proliferation signaling): 0.4727
- Slc7a1 logFC (cell proliferation signaling): −0.396
- Slc12a2 logFC (cell proliferation signaling): −0.2507
- Slc38a1 logFC (cell proliferation signaling): −0.4971
- Smc3 logFC (cell proliferation signaling): −0.2304
- Sorbs2 logFC (cell proliferation signaling): −0.3958
- Tiam1 logFC (cell proliferation signaling): −0.7456
- Tuba4a logFC (cell proliferation signaling): 0.2738
- Vcl logFC (cell proliferation signaling): −0.2001
- Ythdc1 logFC (cell proliferation signaling): −0.1936
- Btg2 logFC [1]: −0.424
- Ccl20 logFC [1]: −1.273
- Cdkn1a logFC [1]: 0.5583
- Chst2 logFC [1]: −0.5212
- Csf1 logFC [1]: −0.8332
- Edn1 logFC [1]: −1.006
- Eif2ak2 logFC [1]: −0.272
- F3 logFC [1]: −0.4963
- Gabbr1 logFC [1]: −0.02473
- Hpn logFC [1]: 0.4007
- Il1b logFC [1]: −1.684
- Il1r1 logFC [1]: −0.2988
- Ly6e logFC [1]: 0.1666
- Nfkb1 logFC [1]: −0.3424
- Nfkbia logFC [1]: −0.5525
- Rnf144b logFC [1]: −0.7108
- Ros1 logFC [1]: −2.078
- Serpine1 logFC [1]: −0.7169
- Slc4a4 logFC [1]: 0.5123
- Slc7a1 logFC [1]: −0.396
- Slc7a2 logFC [1]: −0.8315
- Slc11a2 logFC [1]: 0.3192
- Ahnak logFC (mesangial cell signature): −0.5756
- Akap12 logFC (mesangial cell signature): −0.2687
- Akt3 logFC (mesangial cell signature): −0.3863
- Aldob logFC (mesangial cell signature): 0.4194
